Test results published in BindingDB's records for patent US20240262826 (Blueprint Medicines, 2024).

Biological target: Mast/stem cell growth factor receptor Kit (Homo sapiens, UniProt P10721)
Test: Biochemical Phospho c-Kit Inhibition Assay
Description: For the PathScan phospho c-kit (Tyr719) sandwich ELISA: M-07e cells were resuspended at 2×10^6 cells/mL in phenol red free, serum-free, GM-CSF-free Iscove's Modified Dulbecco's Medium (IMDM) media with 1% Penicillin-Streptomycin. The cells were then dispensed into the wells of a U-bottom, 96-well plate at 50 uL per well using a multichannel pipet. The plate was allowed to incubate at 37° C. in a humidified tissue culture incubator for 4 hours.After 4 hours of incubation, each well was dosed with 6.25 uL of test compound at a final DMSO concentration of 0.25% for 60 min at 37° C. to generate an 8-point dose concentration series of test compounds in duplicate. Cells were then incubated for 1 hour at 37° C. in a humidified tissue culture incubator. Next, human SCF at 500 ng/mL was added to the appropriate wells at 6.25 uL/well and the plate was shaken at 450 rpm at room temperature for 10 minutes. AlphaLISA 5× Lysis Buffer supplemented with 1× protease and phosphatase inhibitor was then added at 16 uL/well. The plate was sealed with an adherent cover and shaken at 4° C. at 600 rpm for 30 minutes. After this period of lysis, the plate was stored at −80° C. When the 96-well plate containing M07e lysates was ready to be processed, the plate was brought to room temperature and 40 μl from each well was transferred to the wells of a PathScan Phospho-c-Kit (Tyr719) Sandwich ELISA plate (CST, Catalog #7298). The ELISA plate was sealed with an adherent cover and incubated for 2 hours at 37° C. Next, the wells were washed 4 times with the provided 1× Wash Buffer, and 100 uL/well of reconstituted Detection Antibody was added to each well, the plate sealed with an adherent cover, and incubated at 37° C. for 1 hour. The wash procedure was repeated and 100 uL/well of reconstituted HRP-Linked secondary antibody was added. The plate was sealed with an adherent cover and incubated at 37° C. for 1 hour. The wash procedure was repeated and 100 uL/well of TMB Substrate was added. The plate was incubated for 10 minutes at room temperature or until the positive reaction elicited a blue color in the appropriate wells. 100 uL/well of STOP solution was added and shaken gently for a few seconds a microplate reader or conventional spectrophotometer e.g., a Perkin Elmer Envision multimode plate reader, part #2105-0010.

Sequence of Mast/stem cell growth factor receptor Kit (P10721 whole entry): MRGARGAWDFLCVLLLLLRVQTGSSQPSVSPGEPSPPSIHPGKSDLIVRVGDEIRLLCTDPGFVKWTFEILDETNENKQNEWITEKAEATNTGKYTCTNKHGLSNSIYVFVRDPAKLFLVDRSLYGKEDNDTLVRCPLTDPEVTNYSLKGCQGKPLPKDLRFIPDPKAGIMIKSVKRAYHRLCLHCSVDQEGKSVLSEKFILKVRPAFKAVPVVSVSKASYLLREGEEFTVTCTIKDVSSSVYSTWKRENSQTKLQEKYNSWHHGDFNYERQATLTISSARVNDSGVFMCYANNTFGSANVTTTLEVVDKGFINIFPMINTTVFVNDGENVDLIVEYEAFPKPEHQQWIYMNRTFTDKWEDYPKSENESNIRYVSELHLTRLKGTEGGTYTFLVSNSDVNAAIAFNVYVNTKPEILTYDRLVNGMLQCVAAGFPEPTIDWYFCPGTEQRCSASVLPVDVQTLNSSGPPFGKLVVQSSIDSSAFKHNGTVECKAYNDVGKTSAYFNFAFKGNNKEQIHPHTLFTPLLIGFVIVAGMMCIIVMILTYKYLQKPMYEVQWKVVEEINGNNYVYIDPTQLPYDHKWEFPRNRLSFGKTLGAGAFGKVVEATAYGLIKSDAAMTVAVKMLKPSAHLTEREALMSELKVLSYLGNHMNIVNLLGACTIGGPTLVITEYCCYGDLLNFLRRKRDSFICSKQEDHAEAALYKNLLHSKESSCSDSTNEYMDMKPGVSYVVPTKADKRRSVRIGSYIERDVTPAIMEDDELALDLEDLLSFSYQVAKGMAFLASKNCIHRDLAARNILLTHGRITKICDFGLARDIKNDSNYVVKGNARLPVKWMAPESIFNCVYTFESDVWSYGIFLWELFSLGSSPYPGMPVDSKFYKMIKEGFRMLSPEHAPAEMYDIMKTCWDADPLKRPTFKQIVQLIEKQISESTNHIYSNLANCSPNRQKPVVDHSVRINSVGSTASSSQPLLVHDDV

Row | SMILES | IC50 [nM]
1 | Cc1ccc(-c2nnn(C3CC(F)(F)C3)n2)cc1NC(=O)c1cnn2ccc(N3CC[C@H]3CO)cc12 [US20240262826, Compound 104] | 3.5
2 | Cc1ccc(-c2nnn(CCOCC(F)(F)F)n2)cc1NC(=O)c1cnn2ccc(-c3cn[nH]c3)cc12 [US20240262826, Compound 197] | 1.4
3 | O=C(Nc1cc(-c2nnn(C3CC(F)(F)C3)n2)c(Cl)cc1Cl)c1cnn2ccc(N3CCOCC3)cc12 [US20240262826, Compound 167] | 7.3
4 | COCCOC[C@@H](O)Cn1cc(-c2ccn3ncc(C(=O)Nc4cc(-c5nnn(C6CC6)n5)c(C)cc4Cl)c3c2)cn1 [US20240262826, Compound 261] | 1.7
5 | Cc1cnn(-c2ccc(C)c(NC(=O)c3cnn4ccc(-c5cnn(C[C@H]6CNCCO6)c5)cc34)c2)n1 [US20240262826, Compound 205] | 8.2
